Patent publication US7091238B1, “Thienylhydrazon with digitalis-like properties (positive inotropic effects)” (University of Maryland, priority 1999, dated 2006)
Entries after “also recorded” stand apart in the source; their conditions may differ.

Legend:
[1] = test system: sarcoplasmic reticulum of human skeletal muscle fibers (vastus lateralis); assay: Induced tension in isolated human skeletal muscle fiber (sarcolemma removed); assay type: cell-based; details: 25, 50, 100 μM, SR loaded at pCa 7.0 for 3 min
Experimental: FIG. 14. Isolated human skeletal muscle fiber from the vastus lateralis (sarcolemmal membrane-free) was exposed to 0.5 mM of CaCl2 to enable maximal muscle tension (Po). The histogram show the effect of LASSBio-294 at concentrations of 25, 50 and 100 μM on induced tension in human fibers. N=6 Calibration: Vertical; 10 mm=20 mg; Horizontal, 10 mm=40 s.
Isolated muscle fiber from the vastus lateralis was exposed to 0.5 mM of CaCl2 to enable maximal muscle tension.

[2] = Blood biochemistry analysis in treated mice; assay type: in vivo
Experimental: b. Rats were weighed before and after treatment with LASSBio 204. […] Six rats were examined in each group, measurements were made after 1–15 days of treatment. […] Mice were injected with LASSBio-294 and their blood examined for cell changes. Experimental groups received 2 or 10 mg/kg of drug. […] Table 4 lists blood chemistry analysis of mice treated with LASSBio-294. Experimental groups received 2 or 10 mg/kg of drug. Controls were saline and solvent. […] The low values of glucose found could be due to an artifact of the technique, glucose being a byproduct of hemolysis. […] General Method

[3] = test system: sarcoplasmic reticulum of cardiac muscle fibers; assay: Caffeine-induced contracture of saponin-treated left ventricular fibers (Ca2+ uptake/storage by sarcoplasmic reticulum); design: species or system Wistar rats
Experimental: FIG. 7. Bundles of left ventricular fibers were treated with saponin and exposed to 0.5 mM CaCl2 to enable maximal tension development (Po). The contracture initiated by caffeine (20 mM) was measured after treatment of the sarcoplasmic reticulum (SR) with a solution of pCa 6.6 in the absence or presence of LASSBio-294 (100 μM0 for 0.5, 1.0 and 5.0 min. N=6. Calibration: Vertical, 10 mm=20 mg load; Horizontal, 10 mm=40 sec.
FIG. 8. Contracture induced by caffeine in relation to loading of the sarcoplasmic reticulum with a solution of pCa 6.6.
FIG. 9. The contractual responses were obtained during exposure to 20 mM caffeine after loading of the sarcoplasmic reticulum with pCA 6.6 in the absence and the presence of LASSBio-294.
FIG. 11. Concentration-response relationship for contracture induced by caffeine in the presence of 100 μM LASSBio-294. *p<0.01.
b. Graphic representation of the tests in FIG. 7 showing the effect of LASSBio-294 on uptake of Ca^2+ by sarcoplasmic reticulum in isolated cardiac muscle with sarcolemma removed. FIG. 9 illustrates the effect of LASSBio-294 on tension in isolated cardiac muscle with sarcolemma removed was measured. Measurement of contraction induced by caffeine, as a function concentration of LASSBio-294 in bathing solution. FIG. 9 is a graphic representation of the effect of increasing concentrations of LASSBio-294 between 0 and 20 μM. […] FIG. 12 illustrates the effect of LASSBio-294 on sensitivity of cardiac fibers to calcium. Calcium levels can induce isometric twitch. […] FIG. 13 provides a graphic representation of data in FIG. 12. General Method
Bundles of left ventricular muscle (130 μm diameter and 1–2 mm in thickness) from Wistar rats were dissected out and mounted for measurement of isometric tension. The muscles were treated with saponin solution (0.5%) for 5 minutes to […] the permeability of the sarcolemma. The membranes of the SR were then […] with Triton X-100 (1% v/v) with the objective of investigating the effects of LASSBio-294 on the sensitivity of the contractile system Ca^2+. […] Caffeine is used to elicit contraction in muscle. Comparison of caffeine alone to caffeine in the presence of LASSBio-294 was measured.

particulate PDE 3 = assay: Direct inhibition of particulate PDE 3; assay type: biochemical; details: rabbit heart
[4] = test system: contractile system of cardiac fibers; assay: Ca2+-induced tension in Triton X-100 treated left ventricular muscle bundles; design: species or system Wistar rats
Experimental: FIG. 12. Muscle bundles were treated with 1% Triton X-100 for 60 min and exposed to solutions containing increasing concentrations of Ca^2+ in the presence or absence of LASSBio-294 (100 μM). Calibration: Vertical, 10 mm=20 mg; Horizontal, 10 mm=40 sec.
FIG. 13. Bundles of left ventricular muscles were treated with Triton X-100 and exposed to increasing concentrations of Ca^2+. Muscle tension expressed as % of the maximal response induced by 0.5 mM CaCl2 is graphed as a function of pCa.
b. Graphic representation of the tests in FIG. 7 showing the effect of LASSBio-294 on uptake of Ca^2+ by sarcoplasmic reticulum in isolated cardiac muscle with sarcolemma removed. FIG. 9 illustrates the effect of LASSBio-294 on tension in isolated cardiac muscle with sarcolemma removed was measured. Measurement of contraction induced by caffeine, as a function concentration of LASSBio-294 in bathing solution. FIG. 9 is a graphic representation of the effect of increasing concentrations of LASSBio-294 between 0 and 20 μM. […] FIG. 12 illustrates the effect of LASSBio-294 on sensitivity of cardiac fibers to calcium. Calcium levels can induce isometric twitch. […]
Bundles of left ventricular muscle (130 μm diameter and 1–2 mm in thickness) from Wistar rats were dissected out and mounted for measurement of isometric tension. […] Comparison of caffeine alone to caffeine in the presence of LASSBio-294 was measured.

O=C(NN=Cc1cccs1)c1ccc2c(c1)OCO2 [LASSBio-294, 3,4-methylenedioxybenzoyl-2-thienylhydrazone]
release of Ca^2+ from the sarcoplasmic reticulum / induced tension [1]: induces the release of Ca^2+; also recorded: evoked a contraction | hemoglobin, erythrocytes and blood biochemistry ([2]; male and female mice, long-term treatment): values similar to control | blood chemistry values ([2]; mice, 2 or 10 mg/kg, controls saline and solvent): no significant change in blood chemistry values | uptake of Ca^2+ by the sarcoplasmic reticulum ([3]; 100 μM, loading at pCa 6.6, 20 mM caffeine contracture): increases uptake of Ca^2+ | response to caffeine as a function of compound concentration ([3]; 20 mM caffeine, concentrations between 0 and 20 μM): increases until 10 μM | contraction (isometric tension) elicited by caffeine ([3]; caffeine 0.05 to 10 mM, 100 μM compound vs control): increased over control at all concentrations | storage of Ca^2+ by the sarcoplasmic reticulum ([3]; cardiac muscle fibers): increases the storage of Ca^2+ | direct inhibition of particulate PDE 3 (particulate PDE 3): did not inhibit directly | sensitivity of muscle fibers to calcium [4]: does not change | isometric twitch response at each level of pCa ([4]; Triton X-100 treated fibers, 100 μM vs control): greater in the presence of LASSBio-294 than in control
